Assay results reported in US20250002460A1, “SORTILIN INHIBITORS” (SORTINA PHARMA AB, priority 2021, published 2025).

Experiments:
[1] = tested on: colon cancer cell line HT-29; experiment: Sphere formation assay in HT-29; format: cell-based; settings: HT-29, FIG. 5
Experimental: (§1) C-terminal Progranulin (progranulin) (Casio, peptide sequence: […], SEQ ID NO: 5) were reconstituted in sterile PBS upon delivery, aliquoted and stored at −20° C. Working stock concentrations were achieved by dilution in culture media. […] 5% CO2 and 21% O2 before performing the primary followed by secondary sphere formation assay.
(§2) The sphere formation assay was performed as described previously (Mammary Gland Biol Neoplasia, 2012, 17(2): 111-117). Briefly, single cell suspensions were obtained following treatment with respective sortilin inhibitors SI1, SI5, SI8, SI25, SI32, SI39, SI51 and SI62 of the invention and seeded in phenol red-free DMEM/F-12 (Gibco®, Life Technologies), supplemented with 1% B27 supplement (Fisher Scientific, Invitrogen), 1% P/S and 20 ng/ml EGF (BD Biosciences) onto non-adherent polyhema-coated plates. After cultivation for five days, single cell suspensions were obtained from the primary spheres and seeded again in phenol red-free DMEM/F-12 supplemented with 1% B27 supplement, 1% P/S and 20 ng/ml EGF onto non-adherent polyhema-coated plates for 5-7 days. Subsequently, spheres greater than 50 μm in diameter were counted manually in the microscope.

MDA-MB-231 xenograft = MDA-MB-231 xenograft in vivo model, metastasis assessment; parameters: species or system NOD SCID gamma mice; settings: compared to vehicle control; RC3 5-50 μg/day/mouse in drinking water for 21 days
Experimental: Luciferase tagged MDA-MB-231 cells were injected at a concentration of 0.2×10^6 cells subcutaneously into two sites of the flank of NOD SCID gamma mice (Taconic, Denmark). Cells were prepared in a 60% mixture of matrigel (growth factor reduced, BD Bioscience) and 40% complete media. The size of the tumors were determined by calliper measurement of the subcutaneous tumor mass two times per week and tumor volume was calculated according to the formula volume=(length×(width)^2/2). Assessments of metastasis were performed using the IVIS® whole body imager (PerkinElmer) based on luciferase expression from stably transfected cell lines.

human sortilin (sSORT) = target: T1, human sortilin (sSORT) (Homo sapiens, UniProt Q99523); experiment: Neurotensin competitive fluorescence polarization binding assay (FPA); settings: mean IC50 values for sortilin inhibitors, IC50 (nM), 100 nM sSORT, 10 nM Neurotensin-Ahx-FITC, 1 h room temperature
T1 sequence (Q99523 78-756 limits assumed): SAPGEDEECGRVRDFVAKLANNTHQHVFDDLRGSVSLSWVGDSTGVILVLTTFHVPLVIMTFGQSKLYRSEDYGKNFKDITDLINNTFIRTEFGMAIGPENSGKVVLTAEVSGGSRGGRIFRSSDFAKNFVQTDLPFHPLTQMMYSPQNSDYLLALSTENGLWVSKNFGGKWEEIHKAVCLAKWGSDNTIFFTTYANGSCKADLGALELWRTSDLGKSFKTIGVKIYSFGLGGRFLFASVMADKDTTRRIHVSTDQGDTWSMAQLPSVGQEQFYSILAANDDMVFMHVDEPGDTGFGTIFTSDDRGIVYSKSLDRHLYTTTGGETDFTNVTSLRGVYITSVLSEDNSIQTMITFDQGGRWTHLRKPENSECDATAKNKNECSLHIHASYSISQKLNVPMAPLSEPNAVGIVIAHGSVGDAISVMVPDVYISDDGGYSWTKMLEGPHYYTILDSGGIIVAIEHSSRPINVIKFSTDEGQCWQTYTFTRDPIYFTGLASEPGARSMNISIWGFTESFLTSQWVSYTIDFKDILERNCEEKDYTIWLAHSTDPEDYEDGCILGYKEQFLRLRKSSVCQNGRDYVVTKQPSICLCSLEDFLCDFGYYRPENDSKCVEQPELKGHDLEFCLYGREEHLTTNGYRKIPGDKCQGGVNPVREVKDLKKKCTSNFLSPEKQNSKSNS
Experimental: Fresh 0.1% bovine serum albumin (BSA) was added to the assay buffer to obtain the final concentration: 50 mM HEPES, pH 7.4; 100 mM NaCl; 2.0 mM CaCl2; 0.1% BSA; 0.1% TWEEN® 20. The sortilin inhibitors of the invention and reference compounds (see Table 1) analyzed in the screen and neurotensin (used as an assay control) were serially diluted in ten different concentrations in assay buffer. In each well of a Nunc® MaxiSorp™ 384-well plate (Sigma Aldrich), 100 nM sSORT was mixed with pre-diluted sortilin inhibitors and 10 nM Neurotensin-Ahx-FITC in assay buffer adjusted to contain 1% DMSO in a final volume of 20 μl. The plate was then briefly centrifuged prior to 1 h incubation at room temperature in the dark.

[2] = tested on: MDA-MB-231 breast cancer cell line; experiment: Secondary sphere formation assay in MDA-MB-231; format: cell-based; settings: 48 hours; for progranulin induced secondary sphere formation: MDA-MB-231, in combination with 500 nM progranulin; for baseline sphere formation, compound used alone: MDA-MB-231, without progranulin
Experimental: as §1, §2

[3] = tested on: melanoma cell line SK-MEL-30; experiment: Sphere formation assay in SK-MEL-30; format: cell-based; settings: SK-MEL-30, FIG. 6
Experimental: as §1, §2

Compound | IC50 (human sortilin (sSORT)) | colon cancer cell sphere formation [1] | lung metastasis / metastasis formation (MDA-MB-231 xenograft) | progranulin induced secondary sphere formation [2] | baseline sphere formation, compound used alone [2] | melanoma cancer cell sphere formation [3]
CC(C)(C)/C=C/C(NC(=O)c1ccc(Oc2ccccc2)nc1)C(=O)O (racemic) [SI5, (E)-5,5-dimethyl-2-(6-phenoxynicotinoylamino)-3-hexenoic acid] | 17 nM | reduced | reduced metastasis formation | reduced sphere formation | reduced baseline sphere formation | 
Cc1nc(N(C)C)ncc1C(=O)NC(/C=C/C(C)(C)C)C(=O)O (racemic) [SI1, (E)-2-[2-(dimethylamino)-4-methyl-5-pyrimidinylcarbonylamino]-5,5-dimethyl-3-hexenoic acid] | 59 nM |  |  | reduced sphere formation | reduced baseline sphere formation | 
CC(C)(C)/C=C/C(NC(=O)c1cc(Cl)c[nH]1)C(=O)O (stereo not drawn) [SI8, (E)-2-(4-chloro-2-pyrrolylcarbonylamino)-5,5-dimethyl-3-hexenoic acid] | 43 nM |  |  | reduced sphere formation | reduced baseline sphere formation | 
Cc1cccc(NC(=O)c2ccc(C(F)(F)F)cc2C(=O)O)n1 [RC3, 2-(N-6-Methyl-2-pyridylcarbamoyl)-5-(trifluoromethyl)benzoic acid, reference compound] |  |  | induced lung metastasis | reduced sphere formation | increased sphere formation | 

The next lines start with results.

IC50 (human sortilin (sSORT)) | Compound | colon cancer cell sphere formation [1] | lung metastasis / metastasis formation (MDA-MB-231 xenograft) | progranulin induced secondary sphere formation [2] | baseline sphere formation, compound used alone [2] | melanoma cancer cell sphere formation [3]
61 nM | CC(C)(C)/C=C/C(NC(=O)c1cc(Cl)c(Cl)s1)C(=O)O (stereo not drawn) [SI62, (E)-2-(4,5-dichloro-2-thienylcarbonylamino)-5,5-dimethyl-3-hexenoic acid] |  |  |  | reduced baseline sphere formation | reduced
31 nM | CC(C)(C)/C=C/C(NC(=O)c1cccc(-n2ccnc2)c1)C(=O)O (stereo not drawn) [SI25, (E)-5,5-dimethyl-2[m-(1-imidazolyl)benzoylamino]-3-hexenoic acid] |  |  |  | reduced baseline sphere formation | 
52 nM | CC(C)(C)/C=C/C(NC(=O)c1cc(Cl)cs1)C(=O)O (stereo not drawn) [SI32, (E)-2-(4-chloro-2-thienylcarbonylamino)-5,5-dimethyl-3-hexenoic acid] |  |  |  | reduced baseline sphere formation | 
